Results taken from US11980688B2, “Nanoliposome-microbubble conjugate including drug for hair loss treatment encapsulated in nanoliposome and composition for alleviating or treating hair loss containing same” (priority 2018, dated 2024).

Assays:
C57BL/6J mice = test: Testosterone-induced hair loss mouse model, hair growth; assay type: in vivo; conditions: FIG. 5
Description: The hair on the back of each of 6-week-old mice (C57BL/6J) was epilated using an animal epilator (Philips) and hair removal cream (Veet), after which testosterone was dissolved in a mixed solution of propylene glycol and ethanol (3:7 (v:v)) and applied every day at a concentration of 30 μg/ml, and thus an environment similar to that of human hair loss was made.
In the present experiment, the individual test groups were as follows (testosterone was applied to the skin in all cases). • (1) A control group (non-treated group); • (2) A group treated with testosterone; • (3) A group treated with testosterone and then subjected to skin application with the nanoliposome-microbubble conjugate of Example 1; • (4) A group treated with testosterone and then subjected to oral administration with a commercially available finasteride solution; • (5) A group treated with testosterone and then subjected to skin application with a commercially available finasteride solution; • (6) A group treated with testosterone and then subjected to skin application with the nanoliposome of Comparative Example 1; and • (7) A group subjected to skin application with the nanoliposome-microbubble conjugate of Example 1.
A nanoliposome-microbubble conjugate (HTP) configured such that the nanoliposome and the microbubble were conjugated and dispersed at a ratio of 2:1 was used. 200 μl thereof, having a total finasteride content of 1 μg, was applied on the entire epilated back of the mice using a plastic spatula, and after 3 min, was exposed to ultrasound using a medical sonicator. Here, the nanoliposome-microbubble conjugate was applied five times at an interval of one day. Under the same conditions, the total finasteride content was matched in the group treated with the commercially available finasteride solution in lieu of the solution of Example 1 or Comparative Example 1. […]

DPCs = test: Cell viability, WST-1 assay, testosterone-induced apoptosis; assay type: cell-based; conditions: 200 μM testosterone, every 24 hr for 4 days, DPCs compared to 3T3 fibroblasts, FIG. 4 left
Description: Cell viability was evaluated through WST-1 assay (EZ-cytox Cell Viability Assay Kit). DPCs and 3T3 fibroblasts were cultured at a density of 1×10^4/well in a 96-well plate for 24 hr. Here, the culture medium was replaced with a new medium containing 200 μM testosterone, and after 24 hr, a WST-1 reagent was added thereto. The WST-1 reagent was added in an amount of 10% of the culture broth, and after 1 hr, absorbance was measured at 460 nm and thus cell survival and proliferation were compared with a control group (non-treated group). Cell survival was measured at an interval of 24 hr for 4 days after testosterone treatment.
After treatment with the nanoliposome-microbubble conjugate (HTP) of the present invention before treatment with testosterone in the same manner, the culture medium was replaced with a new medium containing 200 μM testosterone, the subsequent procedures were conducted as above, and the state of cells was observed. A comparative group was treated with the nanoliposome-microbubble conjugate (HTP) alone.

Compound	hair growth after testosterone, skin application (C57BL/6J mice; testosterone 30 μg/ml daily, total finasteride 1 μg, applied five times at one-day interval)	hair growth after testosterone, oral administration (C57BL/6J mice; testosterone daily, oral dose 10 times the application dose, five times)	hair growth, testosterone alone (C57BL/6J mice; testosterone 30 μg/ml applied every day to epilated back)	extent of apoptosis over time (DPCs)
CC(C)(C)NC(=O)[C@H]1CC[C@H]2[C@@H]3CC[C@H]4NC(=O)C=C[C@]4(C)[C@H]3CC[C@]12C [commercially available finasteride drug, finasteride]	hair started growing on the seventh week	hair started growing on the seventh week	–	–
C[C@]12CC[C@H]3[C@@H](CCC4=CC(=O)CC[C@@]43C)[C@@H]1CC[C@@H]2O [testosterone]	–	–	grew hardly any hair	greatly increased in DPCs compared to 3T3 cells
